According to PubChem BioAssay AID256 (DTP/NCI, 2004):
Where “and” joins values, the source holds several entries; their conditions need not be identical. Equal values may be shown once. Toxic doses and inconclusive results are not listed.

Tested on: CD2F1 mice, L1210 leukemia ip, survival T/C
Assay: NCI In Vivo Anticancer Drug Screen. Data for tumor model L1210 Leukemia (intraperitoneal) in CD2F1 (CDF1) mice
Conditions: higher = longer survival
Procedure, shortened: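 Transplantable tumor in mice; compound-treated vs vehicle-treated groups. Read-out = treated/control ratio of the measured endpoint.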

[1] = endpoint: mean survival time, dose: 100.0 mg/kg/injection, schedule: Q01DX009 (ip), vehicle: saline with Tween-80
[2] = endpoint: mean survival time, dose: 200.0 mg/kg/injection, schedule: Q04DX003 (ip), vehicle: saline with Tween-80
[3] = endpoint: mean survival time, dose: 400.0 mg/kg/injection, schedule: Q04DX003 (ip), vehicle: saline with Tween-80
[4] = endpoint: mean survival time, dose: 25.0 mg/kg/injection, schedule: Q01DX009 (ip), vehicle: saline with Tween-80
[5] = endpoint: mean survival time, dose: 50.0 mg/kg/injection, schedule: Q01DX009 (ip), vehicle: saline with Tween-80
[6] = endpoint: mean survival time, dose: 400.0 mg/kg/injection, schedule: Q01DX009 (ip), vehicle: saline with Tween-80
[7] = endpoint: mean survival time, dose: 50.0 mg/kg/injection, schedule: Q01DX009 (ip), vehicle: saline
[8] = endpoint: mean survival time, dose: 100.0 mg/kg/injection, schedule: Q01DX009 (ip), vehicle: saline
[9] = endpoint: mean survival time, dose: 200.0 mg/kg/injection, schedule: Q01DX009 (ip), vehicle: saline
[10] = endpoint: mean survival time, dose: 100.0 mg/kg/injection, schedule: Q01DX001 (ip), vehicle: saline
[11] = endpoint: mean survival time, dose: 200.0 mg/kg/injection, schedule: Q01DX001 (ip), vehicle: saline
[12] = endpoint: mean survival time, dose: 200.0 mg/kg/injection, schedule: Q01DX009 (ip), vehicle: saline with Tween-80
[13] = endpoint: mean survival time, dose: 100.0 mg/kg/injection, schedule: Q04DX003 (ip), vehicle: saline with Tween-80

SMILES: Cc1ccc(C(=O)NC2C(=O)NC(C(C)C)C(=O)N3CCCC3C(=O)N(C)CC(=O)N(C)C(C(C)C)C(=O)OC2C)c2c1Oc1c(c(C(=O)NC3C(=O)NC(C(C)C)C(=O)N4CCCC4C(=O)N(C)CC(=O)N(C)C(C(C)C)C(=O)OC3C)c3nc(-c4ccccc4)c(=O)oc3c1C)N2 (stereo not drawn)
- T/C (endpoint: median survival time, dose: 0.06 mg/kg/injection, schedule: Q01DX009 (ip), vehicle: water): 112 % of control
- T/C (endpoint: median survival time, dose: 0.12 mg/kg/injection, schedule: Q01DX009 (ip), vehicle: water): 122 % of control
- T/C (endpoint: median survival time, dose: 0.25 mg/kg/injection, schedule: Q01DX009 (ip), vehicle: water): 117 % of control

SMILES: NN(C(=O)c1ccccc1)C1CCCCC1
- T/C [1]: 97 % of control

SMILES: COc1ccc2c3c1OC1C(=O)C4CC5(c6c(O)ccc(O)c64)C(C2)N(C)CCC315 (stereo not drawn)
- T/C [2]: 86 % of control
- T/C [3]: 86 % of control

SMILES: COC1CCC(/C=C(\C#N)C2CCC(C)CC2)CC1 (stereo not drawn)
- T/C [4]: 93 % of control
- T/C [5]: 91 % of control
- T/C [1]: 90 % of control and 93 % of control
- T/C [6]: 92 % of control

SMILES: CC1(C)N=C(N)N=C(N)N1c1ccc(Cl)c(Cl)c1
- T/C (endpoint: mean survival time, dose: 25.0 mg/kg/injection, schedule: Q04DX002 (ip), vehicle: saline with Tween-80): 102 % of control
- T/C (endpoint: mean survival time, dose: 50.0 mg/kg/injection, schedule: Q04DX002 (ip), vehicle: saline with Tween-80): 98 % of control
- T/C (endpoint: mean survival time, dose: 100.0 mg/kg/injection, schedule: Q01DX001 (ip), vehicle: Klucel (hydroxypropylcellulose) (HPC)): 96 % of control
- T/C (endpoint: mean survival time, dose: 100.0 mg/kg/injection, schedule: Q04DX002 (ip), vehicle: saline with Tween-80): 90 % of control

SMILES: CC[C@@]1(OC(=O)CN2CCCC2)C(=O)OCc2c1cc1n(c2=O)Cc2cc3ccccc3nc2-1
- T/C (endpoint: median survival time, dose: 6.25 mg/kg/injection, schedule: Q04DX002 (ip), vehicle: water): 108 % of control
- T/C (endpoint: median survival time, dose: 12.5 mg/kg/injection, schedule: Q04DX002 (ip), vehicle: water): 113 % of control
- T/C (endpoint: median survival time, dose: 50.0 mg/kg/injection, schedule: Q04DX002 (ip), vehicle: water): 158 % of control and 166 % of control

SMILES: O=C1NC(=O)C([N+](=O)[O-])=C(O)C1=O
- T/C [7]: 102 % of control
- T/C [8]: 93 % of control
- T/C [9]: 90 % of control

SMILES: Brc1ccc(N=Cc2ccccc2)cc1
- T/C (endpoint: mean survival time, dose: 100.0 mg/kg/injection, schedule: Q04DX002 (ip), vehicle: saline): 100 % of control
- T/C (endpoint: mean survival time, dose: 200.0 mg/kg/injection, schedule: Q04DX002 (ip), vehicle: saline): 103 % of control
- T/C (endpoint: mean survival time, dose: 400.0 mg/kg/injection, schedule: Q04DX002 (ip), vehicle: saline): 107 % of control

SMILES: NC1(C(=O)O)CCCC1.[Pd]
- T/C [10]: 100 % of control
- T/C [11]: 96 % of control

SMILES: CCOc1ccc(OCC)c(NC(=O)c2ccccc2)c1
- T/C [1]: 98 % of control
- T/C [12]: 107 % of control
- T/C [6]: 100 % of control

SMILES: [C-]#[N+]C(C)(CC)c1ccccc1 (stereo not drawn)
- T/C (endpoint: mean survival time, dose: 35.0 mg/kg/injection, schedule: Q01DX009 (ip), vehicle: saline with Tween-80): 105 % of control

SMILES: CC(C)(O)C(Cl)(Cl)Cl
- T/C [7]: 97 % of control
- T/C [8]: 95 % of control
- T/C [9]: 107 % of control

SMILES: CO/N=C/[C@@H](CO)O[C@H](/C=N/OC)n1cnc2c(N)ncnc21
- T/C (endpoint: median survival time, dose: 12.5 mg/kg/injection, schedule: Q01DX005 (ip), vehicle: distilled water + Tween-80): 97 % of control
- T/C (endpoint: median survival time, dose: 25.0 mg/kg/injection, schedule: Q01DX005 (ip), vehicle: distilled water + Tween-80): 100 % of control
- T/C (endpoint: median survival time, dose: 50.0 mg/kg/injection, schedule: Q01DX005 (ip), vehicle: distilled water + Tween-80): 97 % of control
- T/C (endpoint: median survival time, dose: 100.0 mg/kg/injection, schedule: Q01DX005 (ip), vehicle: distilled water + Tween-80): 96 % of control
- T/C (endpoint: median survival time, dose: 200.0 mg/kg/injection, schedule: Q01DX005 (ip), vehicle: distilled water + Tween-80): 100 % of control

SMILES: CN=S(=O)(OCCCCCOS(=O)(=NC)c1ccc(C)cc1)c1ccc(C)cc1 (stereo not drawn)
- T/C (endpoint: mean survival time, dose: 0.39 mg/kg/injection, schedule: Q01DX009 (ip), vehicle: saline with Tween-80): 97 % of control
- T/C (endpoint: mean survival time, dose: 0.78 mg/kg/injection, schedule: Q01DX009 (ip), vehicle: saline with Tween-80): 103 % of control
- T/C (endpoint: mean survival time, dose: 1.56 mg/kg/injection, schedule: Q01DX009 (ip), vehicle: saline with Tween-80): 97 % of control
- T/C (endpoint: mean survival time, dose: 3.12 mg/kg/injection, schedule: Q01DX009 (ip), vehicle: saline with Tween-80): 105 % of control
- T/C (endpoint: mean survival time, dose: 6.25 mg/kg/injection, schedule: Q01DX009 (ip), vehicle: saline with Tween-80): 95 % of control and 100 % of control
- T/C (endpoint: mean survival time, dose: 12.5 mg/kg/injection, schedule: Q01DX009 (ip), vehicle: saline with Tween-80): 97 % of control and 101 % of control
- T/C [4]: 103 % of control
- T/C [5]: 97 % of control
- T/C [1]: 101 % of control
- T/C [12]: 100 % of control

SMILES: O=C(O)CSc1cc(Cl)ccc1Cl
- T/C (endpoint: mean survival time, dose: 12.5 mg/kg/injection, schedule: Q04DX003 (ip), vehicle: Klucel (hydroxypropylcellulose) (HPC)): 95 % of control
- T/C (endpoint: mean survival time, dose: 25.0 mg/kg/injection, schedule: Q04DX003 (ip), vehicle: Klucel (hydroxypropylcellulose) (HPC)): 98 % of control
- T/C (endpoint: mean survival time, dose: 50.0 mg/kg/injection, schedule: Q04DX003 (ip), vehicle: Klucel (hydroxypropylcellulose) (HPC)): 100 % of control
- T/C (endpoint: mean survival time, dose: 100.0 mg/kg/injection, schedule: Q04DX003 (ip), vehicle: Klucel (hydroxypropylcellulose) (HPC)): 100 % of control

SMILES: Nc1ncc[nH]1
- T/C (endpoint: mean survival time, dose: 50.0 mg/kg/injection, schedule: Q01DX001 (ip), vehicle: saline): 110 % of control
- T/C [10]: 108 % of control
- T/C [11]: 110 % of control
- T/C (endpoint: mean survival time, dose: 400.0 mg/kg/injection, schedule: Q01DX001 (ip), vehicle: saline): 108 % of control

SMILES: COC(=O)CCC(=O)NCCc1c[nH]c2ccccc12
- T/C [13]: 98 % of control
- T/C [2]: 93 % of control
- T/C [3]: 98 % of control

SMILES: Nc1nc(N)c2c(n1)CN(c1ccccc1)C2
- T/C (endpoint: mean survival time, dose: 75.0 mg/kg/injection, schedule: Q01DX001 (ip), vehicle: saline): 102 % of control
- T/C (endpoint: mean survival time, dose: 150.0 mg/kg/injection, schedule: Q01DX001 (ip), vehicle: saline): 104 % of control
- T/C (endpoint: mean survival time, dose: 300.0 mg/kg/injection, schedule: Q01DX001 (ip), vehicle: saline): 106 % of control

SMILES: CC(=O)ON(C(C)=O)c1ccc(S(=O)(=O)c2ccc(N(OC(C)=O)C(C)=O)cc2)cc1
- T/C [8]: 92 % of control
- T/C [9]: 90 % of control
- T/C (endpoint: mean survival time, dose: 400.0 mg/kg/injection, schedule: Q01DX009 (ip), vehicle: saline): 89 % of control

SMILES: O=C1NC2(c3ccccc3)NC(=O)NC2(c2ccccc2)N1 (stereo not drawn)
- T/C [1]: 98 % of control
- T/C [13]: 101 % of control
- T/C [12]: 98 % of control
- T/C [2]: 97 % of control
- T/C [6]: 104 % of control
- T/C [3]: 95 % of control

SMILES: NNC(=O)c1ncn(C2OC(CO)C(O)C2O)c1C(=O)NN (stereo not drawn)
- T/C (endpoint: mean survival time, dose: 12.5 mg/kg/injection, schedule: Q01DX005 (ip), vehicle: water): 103 % of control
- T/C (endpoint: mean survival time, dose: 25.0 mg/kg/injection, schedule: Q01DX005 (ip), vehicle: water): 101 % of control
- T/C (endpoint: mean survival time, dose: 50.0 mg/kg/injection, schedule: Q01DX005 (ip), vehicle: water): 95 % of control
- T/C (endpoint: mean survival time, dose: 100.0 mg/kg/injection, schedule: Q01DX005 (ip), vehicle: water): 103 % of control
- T/C (endpoint: mean survival time, dose: 200.0 mg/kg/injection, schedule: Q01DX005 (ip), vehicle: water): 97 % of control

SMILES: O=C(c1ccccc1)C(c1ccccc1)(c1ccccc1)c1ccccc1
- T/C (endpoint: mean survival time, dose: 100.0 mg/kg/injection, schedule: Q01DX001 (ip), vehicle: saline with Tween-80): 93 % of control
- T/C (endpoint: mean survival time, dose: 200.0 mg/kg/injection, schedule: Q01DX001 (ip), vehicle: saline with Tween-80): 89 % of control
- T/C (endpoint: mean survival time, dose: 400.0 mg/kg/injection, schedule: Q01DX001 (ip), vehicle: saline with Tween-80): 89 % of control

SMILES: O=C(NO)c1cc(O)c(O)c(O)c1
- T/C (endpoint: mean survival time, dose: 100.0 mg/kg/injection, schedule: Q01DX009 (ip), vehicle: water): 117 % of control
- T/C (endpoint: mean survival time, dose: 200.0 mg/kg/injection, schedule: Q01DX009 (ip), vehicle: distilled water + Tween-80): 154 % of control
- T/C (endpoint: mean survival time, dose: 200.0 mg/kg/injection, schedule: Q01DX009 (ip), vehicle: water): 156 % of control
- T/C (endpoint: mean survival time, dose: 400.0 mg/kg/injection, schedule: Q01DX009 (ip), vehicle: distilled water + Tween-80): 104 % of control
- T/C (endpoint: mean survival time, dose: 400.0 mg/kg/injection, schedule: Q01DX009 (ip), vehicle: water): 100 % of control
- T/C (endpoint: mean survival time, dose: 800.0 mg/kg/injection, schedule: Q01DX009 (ip), vehicle: distilled water + Tween-80): 116 % of control
- T/C (endpoint: median survival time, dose: 25.0 mg/kg/injection, schedule: Q01DX009 (ip), vehicle: distilled water + Tween-80): 107 % of control
- T/C (endpoint: median survival time, dose: 50.0 mg/kg/injection, schedule: Q01DX009 (ip), vehicle: distilled water + Tween-80): 120 % of control
- T/C (endpoint: median survival time, dose: 200.0 mg/kg/injection, schedule: Q01DX009 (ip), vehicle: distilled water + Tween-80): 158 % of control and 162 % of control
- T/C (endpoint: median survival time, dose: 400.0 mg/kg/injection, schedule: Q01DX009 (ip), vehicle: distilled water + Tween-80): 90 % of control
